Measurements published in ChEMBL document CHEMBL1143016, “Scutiaquinones A and B, perylenequinones from the roots of Scutia myrtina with anthelmintic activity” (J Nat Prod, 2007).
≈ marks a conversion by molar mass, not a printed value. Calls of active or inactive are those of the source. The rule behind the calls is not given here.

Assays:
[1] = system: Heligmosomoides polygyrus; test: Anthelmintic activity against Heligmosomoides polygyrus infected Swiss-Webster mouse assessed as reduction of worm counts at 25 mg/kg, im; format: functional, organism-based; parameters: dose 25 mg/kg
Haemonchus contortus = test: Anthelmintic activity against Haemonchus contortus assessed as reduction in L3 larval motility; format: functional
Mus musculus = test: Toxicity in Swiss-Webster mouse at 50 mg/kg, im; format: organism-based; parameters: dose 50 mg/kg, route intramuscular; conditions: in vivo
[2] = system: Heligmosomoides polygyrus; test: Anthelmintic activity against Heligmosomoides polygyrus infected Swiss-Webster mouse assessed as reduction of worm counts at 30 mg/kg, im; format: functional, organism-based; parameters: dose 30 mg/kg

Structure (SMILES)	Activity [1]	EC90 (Haemonchus contortus) [µg/mL]	Activity (Mus musculus)	Activity [2]
Cc1cc2c3cc(C)c(O)c4c(=O)c5c(c(c6c7c(c(=O)c(c1O)c26)[C@@H](C)O[C@@H](C)C7)c43)C[C@H](C)O[C@@H]5C [SCUTIAQUINONE A]	inactive	9.3 (≈ 18.2 µM)	–	–
Cc1cc2c3c4c(c(O)c5c(=O)c(C)cc(c6c7c(c(=O)c(c1O)c26)[C@@H](C)O[C@@H](C)C7)c53)[C@@H](C)O[C@@H](C)C4 [SCUTIAQUINONE B]	–	10.3 (≈ 20.2 µM)	Toxic	inactive
